Test results taken from patent publication EP0908457B1, “3-(1,2-benzisothiazol- and isoxazol-5-Y1)-2,4(1H,3H)-pyrimidinedione or thione and 3-(1,2-benzisothiazol- and isoxazol-5-y1)-4(3H)-pyrimidinone or thione herbicidal agents” (BASF AKTIENGESELLSCHAFT, priority 1997, dated 1999).

Tests used:
[1] = test system: Echinochloa oryzoides (Ard.) Fritsch.; test: Preemergence weed control under flooded paddy conditions, ECHORC (Watergrass (Calif.)); assay type: in vivo; details: flooded paddy; for ECHORC: herbicidal effect rating 0-9, three to four weeks after treatment; for ECHORC herbicidal effect rating / herbicidal effect rating, ECHORC: rated three to four weeks after treatment; as to herbicidal effect rating, ECHORC: meaning of each grade not given here
[2] = test system: Monochoria vaginalis, Presl.; test: Preemergence weed control under flooded paddy conditions, MOOVA (Monochoria); assay type: in vivo; details: flooded paddy; for MOOVA: herbicidal effect rating 0-9, three to four weeks after treatment; for MOOVA herbicidal effect rating / herbicidal effect rating, MOOVA: rated three to four weeks after treatment; as to herbicidal effect rating, MOOVA: meaning of each grade not given here
[3] = test system: Cyperus serotinus, Rottb.; test: Preemergence weed control under flooded paddy conditions, CYPSE (Flatsedge); assay type: in vivo; details: for CYPSE: herbicidal effect rating 0-9, three to four weeks after treatment; for CYPSE herbicidal effect rating / herbicidal effect rating, CYPSE: rated three to four weeks after treatment; as to herbicidal effect rating, CYPSE: meaning of each grade not given here
[4] = test system: Oryza sativa, (L.) Tebonnet; test: Rice tolerance to post-transplant applications under flooded paddy conditions (Example 187), ORYSAT (Rice, Tebonnet); details: for ORYSAT: herbicidal effect rating 0-9, three to four weeks after treatment; for ORYSAT herbicidal effect rating / herbicidal effect rating ORYSAT / herbicidal effect rating, ORYSAT (rice tolerance): rated three to four weeks after treatment; as to herbicidal effect rating ORYSAT: meaning of each grade not given here
Cyperus iria = test: Preemergence weed control under flooded paddy conditions, CYPIR (Rice Flatsedge); assay type: in vivo; details: flooded paddy; for CYPIR: herbicidal effect rating 0-9, three to four weeks after treatment; for CYPIR herbicidal effect rating / herbicidal effect rating, CYPIR: rated three to four weeks after treatment; as to herbicidal effect rating, CYPIR: meaning of each grade not given here
Sagittaria pygmaea, L. = test: Preemergence weed control under flooded paddy conditions, SAGPY (Arrowhead (Pygmaea)); assay type: in vivo; details: flooded paddy; for SAGPY: herbicidal effect rating 0-9, three to four weeks after treatment; for SAGPY herbicidal effect rating / herbicidal effect rating, SAGPY: rated three to four weeks after treatment; as to herbicidal effect rating, SAGPY: meaning of each grade not given here
[5] = 0.0320 kg/ha, preemergence weeds
[6] = 0.0620 kg/ha, preemergence weeds
[7] = 0.1250 kg/ha, preemergence weeds
[8] = 0.2500 kg/ha, preemergence weeds
[9] = Rate 0.0620 kg/ha, preemergence
[10] = Rate 0.1250 kg/ha, preemergence
[11] = Rate 0.2500 kg/ha, preemergence
[12] = Rate 0.5000 kg/ha, preemergence
[13] = Rate 0.0320 kg/ha, preemergence
[14] = 0.0313 kg/ha, preemergence weeds
[15] = 0.0625 kg/ha, preemergence weeds

`Cc1ccsc1C=C(C#N)c1nsc2ccc(-n3c(=O)cc(C(F)(F)F)n(C)c3=O)cc12` [Example 457, 1,2-Benzisothiazole-3-acetonitrile, 5-[3,6-dihydro-3-methyl-2,6-dioxo-4-(trifluoromethyl)-1(2H)-pyrimidinyl]-alpha-(3-methyl-2-thenylidene)-] showed an ECHORC [1, 5] of 5.0, an ECHORC [1, 6] of 7.0 and an ECHORC [1, 7] of 9.0. For the same molecule, the ECHORC [1, 8] was 9.0, the MOOVA [2, 5] was 2.0 and the MOOVA [2, 6] was 4.0. It also gave an MOOVA [2, 7] of 7.0, an MOOVA [2, 8] of 7.0 and a CYPSE [3, 5] of 0.0. The CYPSE [3, 6] was 0.0, the CYPSE [3, 7] was 0.0 and the CYPSE [3, 8] was 0.0. It also gave an ORYSAT ([4]; 0.0320 kg/ha) of 0.0, an ORYSAT ([4]; 0.0620 kg/ha) of 0.0 and an ORYSAT ([4]; 0.1250 kg/ha) of 0.0. It also gave an ORYSAT ([4]; 0.2500 kg/ha) of 3.0, a CYPIR (Cyperus iria; [5]) of 0.0 and a CYPIR (Cyperus iria; [6]) of 3.0. It also gave a CYPIR (Cyperus iria; [7]) of 5.0, a CYPIR (Cyperus iria; [8]) of 7.0 and an SAGPY (Sagittaria pygmaea, L.; [5]) of 0.0. The SAGPY (Sagittaria pygmaea, L.; [6]) was 0.0, the SAGPY (Sagittaria pygmaea, L.; [7]) was 3.0 and the SAGPY (Sagittaria pygmaea, L.; [8]) was 3.0.

With `Cc1nsc2ccc(-n3c(=O)c(Cl)c(C(F)(F)F)n(C)c3=O)cc12` [Example 271, 2,4(1H,3H)-Pyrimidinedione, 5-chloro-1-methyl-3-(3-methyl-1,2-benzisothiazol-5-yl)-6-(trifluoromethyl)-] the “ECHORC herbicidal effect rating” value [1, 9] was 0.0, the “ECHORC herbicidal effect rating” value [1, 10] was 0.0 and the “ECHORC herbicidal effect rating” value [1, 11] was 0.0. The “ECHORC herbicidal effect rating” value [1, 12] was 0.0, the “MOOVA herbicidal effect rating” value [2, 9] was 0.0 and the “MOOVA herbicidal effect rating” value [2, 10] was 4.0. For the same molecule, the “MOOVA herbicidal effect rating” value [2, 11] was 9.0, the “MOOVA herbicidal effect rating” value [2, 12] was 9.0 and the “CYPSE herbicidal effect rating” value [3, 9] was 0.0. For the same molecule, the “CYPSE herbicidal effect rating” value [3, 10] was 0.0, the “CYPSE herbicidal effect rating” value [3, 11] was 0.0 and the “CYPSE herbicidal effect rating” value [3, 12] was 0.0. The “ORYSAT herbicidal effect rating” value ([4]; Rate 0.0620 kg/ha) was 1.0, the “ORYSAT herbicidal effect rating” value ([4]; Rate 0.1250 kg/ha) was 2.0 and the “ORYSAT herbicidal effect rating” value ([4]; Rate 0.2500 kg/ha) was 3.0. For the same molecule, the “ORYSAT herbicidal effect rating” value ([4]; Rate 0.5000 kg/ha) was 0.0, the “CYPIR herbicidal effect rating” value (Cyperus iria; [9]) was 0.0 and the “CYPIR herbicidal effect rating” value (Cyperus iria; [10]) was 0.0. For the same molecule, the “CYPIR herbicidal effect rating” value (Cyperus iria; [11]) was 0.0, the “CYPIR herbicidal effect rating” value (Cyperus iria; [12]) was 0.0 and the “SAGPY herbicidal effect rating” value (Sagittaria pygmaea, L.; [9]) was 0.0. The “SAGPY herbicidal effect rating” value (Sagittaria pygmaea, L.; [10]) was 0.0, the “SAGPY herbicidal effect rating” value (Sagittaria pygmaea, L.; [11]) was 0.0 and the “SAGPY herbicidal effect rating” value (Sagittaria pygmaea, L.; [12]) was 0.0.

For `CN(C(=O)c1nsc2ccc(-n3c(=O)cc(C(F)(F)F)n(C)c3=O)cc12)c1ccc(Cl)cc1` [Example 365, 1,2-Benzisothiazole-3-carboxanilide, 4'-chloro-5-[3,6-dihydro-3-methyl-2,6-dioxo-4-(trifluoromethyl)-1(2H)-pyrimidinyl]-N-methyl-], the “herbicidal effect rating, ECHORC” value [1, 13] was 4.0, the “herbicidal effect rating, ECHORC” value [1, 9] was 6.0 and the “herbicidal effect rating, ECHORC” value [1, 10] was 9.0. The “herbicidal effect rating, ECHORC” value [1, 11] was 9.0, the “herbicidal effect rating, ECHORC” value [1, 12] was 9.0 and the “herbicidal effect rating, MOOVA” value [2, 13] was 9.0. The “herbicidal effect rating, MOOVA” value [2, 9] was 9.0, the “herbicidal effect rating, MOOVA” value [2, 10] was 9.0 and the “herbicidal effect rating, MOOVA” value [2, 11] was 9.0. For the same molecule, the “herbicidal effect rating, MOOVA” value [2, 12] was 9.0, the “herbicidal effect rating, CYPSE” value [3, 13] was 4.0 and the “herbicidal effect rating, CYPSE” value [3, 9] was 4.0. The “herbicidal effect rating, CYPSE” value [3, 10] was 4.0, the “herbicidal effect rating, CYPSE” value [3, 11] was 9.0 and the “herbicidal effect rating, CYPSE” value [3, 12] was 9.0. The “herbicidal effect rating ORYSAT” value ([4]; Rate 0.0320 kg/ha) was 3.0, the “herbicidal effect rating ORYSAT” value ([4]; Rate 0.0620 kg/ha) was 5.0 and the “herbicidal effect rating ORYSAT” value ([4]; Rate 0.1250 kg/ha) was 5.0. For the same molecule, the “herbicidal effect rating ORYSAT” value ([4]; Rate 0.2500 kg/ha) was 5.0, the “herbicidal effect rating ORYSAT” value ([4]; Rate 0.5000 kg/ha) was 6.0 and the “herbicidal effect rating, CYPIR” value (Cyperus iria; [13]) was 4.0. The “herbicidal effect rating, CYPIR” value (Cyperus iria; [9]) was 6.0, the “herbicidal effect rating, CYPIR” value (Cyperus iria; [10]) was 6.0 and the “herbicidal effect rating, CYPIR” value (Cyperus iria; [11]) was 9.0. The “herbicidal effect rating, CYPIR” value (Cyperus iria; [12]) was 9.0, the “herbicidal effect rating, SAGPY” value (Sagittaria pygmaea, L.; [13]) was 3.0 and the “herbicidal effect rating, SAGPY” value (Sagittaria pygmaea, L.; [9]) was 5.0. For the same molecule, the “herbicidal effect rating, SAGPY” value (Sagittaria pygmaea, L.; [10]) was 5.0, the “herbicidal effect rating, SAGPY” value (Sagittaria pygmaea, L.; [11]) was 5.0 and the “herbicidal effect rating, SAGPY” value (Sagittaria pygmaea, L.; [12]) was 6.0.

With `C#CCNC(=O)COc1ccc(C)cc1-c1noc2ccc(-n3c(=O)cc(C(F)(F)F)n(C)c3=O)cc12` [Example 193, 2-{{2-{5-[3,6-Dihydro-3-methyl-2,6-dioxo-4-(trifluoromethyl)-1(2H)-pyrimidinyl]-1,2-benzisoxazol-3-yl}-p-tolyl}oxy}-N-(2-propynyl)acetamide] the “herbicidal effect rating, ECHORC” value [1, 14] was 0.0, the “herbicidal effect rating, ECHORC” value [1, 15] was 0.0 and the “herbicidal effect rating, ECHORC” value [1, 7] was 0.0. The “herbicidal effect rating, ECHORC” value [1, 8] was 0.0, the “herbicidal effect rating, MOOVA” value [2, 14] was 2.0 and the “herbicidal effect rating, MOOVA” value [2, 15] was 4.0. The “herbicidal effect rating, MOOVA” value [2, 7] was 9.0, the “herbicidal effect rating, MOOVA” value [2, 8] was 9.0 and the “herbicidal effect rating, CYPSE” value [3, 14] was 0.0. The “herbicidal effect rating, CYPSE” value [3, 15] was 0.0, the “herbicidal effect rating, CYPSE” value [3, 7] was 0.0 and the “herbicidal effect rating, CYPSE” value [3, 8] was 0.0. For the same molecule, the “herbicidal effect rating, ORYSAT (rice tolerance)” value (shortened to “herbicidal effect rating, ORYSAT”) ([4]; 0.0313 kg/ha) was 0.0, the “herbicidal effect rating, ORYSAT” value ([4]; 0.0625 kg/ha) was 0.0 and the “herbicidal effect rating, ORYSAT” value ([4]; 0.1250 kg/ha) was 0.0. The “herbicidal effect rating, ORYSAT” value ([4]; 0.2500 kg/ha) was 1.0, the “herbicidal effect rating, CYPIR” value (Cyperus iria; [14]) was 0.0 and the “herbicidal effect rating, CYPIR” value (Cyperus iria; [15]) was 0.0. The “herbicidal effect rating, CYPIR” value (Cyperus iria; [7]) was 0.0, the “herbicidal effect rating, CYPIR” value (Cyperus iria; [8]) was 0.0 and the “herbicidal effect rating, SAGPY” value (Sagittaria pygmaea, L.; [14]) was 0.0. The “herbicidal effect rating, SAGPY” value (Sagittaria pygmaea, L.; [15]) was 0.0, the “herbicidal effect rating, SAGPY” value (Sagittaria pygmaea, L.; [7]) was 0.0 and the “herbicidal effect rating, SAGPY” value (Sagittaria pygmaea, L.; [8]) was 0.0.
